Values of other authors in article PMC11212004 (Pharmacology Research & Perspectives, 2024).

Key:
[1] = collagen‐induced arthritis (CIA) model

SMILES: CCC(=O)Nc1ccc(Cl)c(Cl)c1 [DCPA, 3,4‐dichloropropionanilide]
- bone erosion and cartilage damage [1]: reduces bone erosion and cartilage damage
- IL‐2 secretion (Jurkat cells): decreased NFAT‐dependent IL‐2 secretion
- Orai calcium channel antagonism (Orai calcium channel): functions as an Orai calcium channel antagonist
- mineral resorption by osteoclasts in vitro (osteoclasts): inhibits mineral resorption
